target: T1, rat metabotropic glutamate receptor 5 (mGluR5) (Rattus norvegicus, UniProt P31424); assay: Calcium mobilization assay (FLIPR) for negative or positive allosteric activity, HEK 293 cells; type: cell-based; conditions: HEK293, negative allosteric modulation, inhibition of EC80 glutamate response; read-out: FLIPR maximum inhibition
T1 construct: expressed in transfected cells; host or cells: HEK 293
Summary of the method: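 Peak Fluo-4 calcium signal over 3 min at room temperature, minus basal, fitted by Hill equation, in stable rat mGluR5 HEK 293 cells (HBSS/HEPES pH 7.4, BSA, probenecid). Inhibition scored against EC80 glutamate, potentiation against EC20 glutamate, glutamate given with compound.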

T1 sequence (P31424 21-1171 isoform P31424-2 limits assumed): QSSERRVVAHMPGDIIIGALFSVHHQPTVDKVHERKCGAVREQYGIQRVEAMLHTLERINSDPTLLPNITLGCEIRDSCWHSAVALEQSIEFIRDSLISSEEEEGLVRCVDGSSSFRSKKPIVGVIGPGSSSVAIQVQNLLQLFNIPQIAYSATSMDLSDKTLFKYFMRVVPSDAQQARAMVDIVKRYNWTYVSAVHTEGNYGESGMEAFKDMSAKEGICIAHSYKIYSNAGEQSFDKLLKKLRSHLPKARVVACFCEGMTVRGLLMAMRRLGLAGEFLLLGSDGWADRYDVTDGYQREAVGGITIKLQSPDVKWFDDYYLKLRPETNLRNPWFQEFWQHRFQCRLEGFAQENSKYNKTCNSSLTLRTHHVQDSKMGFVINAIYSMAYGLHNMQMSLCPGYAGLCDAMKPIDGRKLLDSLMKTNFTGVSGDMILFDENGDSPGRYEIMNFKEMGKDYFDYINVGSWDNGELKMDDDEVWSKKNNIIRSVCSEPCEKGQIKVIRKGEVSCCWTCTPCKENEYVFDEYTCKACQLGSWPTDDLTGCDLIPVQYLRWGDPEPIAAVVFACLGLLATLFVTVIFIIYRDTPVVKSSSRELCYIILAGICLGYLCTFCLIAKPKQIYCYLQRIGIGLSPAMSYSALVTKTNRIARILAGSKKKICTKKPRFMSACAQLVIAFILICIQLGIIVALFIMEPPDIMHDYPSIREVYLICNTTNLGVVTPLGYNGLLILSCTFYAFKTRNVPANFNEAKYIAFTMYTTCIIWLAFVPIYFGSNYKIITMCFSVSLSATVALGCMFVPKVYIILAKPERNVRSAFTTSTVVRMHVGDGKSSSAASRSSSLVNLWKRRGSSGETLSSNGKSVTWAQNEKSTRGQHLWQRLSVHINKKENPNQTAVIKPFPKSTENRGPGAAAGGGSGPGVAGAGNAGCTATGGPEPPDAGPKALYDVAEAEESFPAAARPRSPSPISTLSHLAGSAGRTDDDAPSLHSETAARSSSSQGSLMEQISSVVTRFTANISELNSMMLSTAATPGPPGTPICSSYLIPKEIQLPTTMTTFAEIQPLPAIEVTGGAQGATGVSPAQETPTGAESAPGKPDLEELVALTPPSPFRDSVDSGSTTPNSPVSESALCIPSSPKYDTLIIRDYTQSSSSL

| Structure (SMILES) | Emax [%] |
| --- | --- |
| Cc1cncc(C(=O)NC23CC4CC(CC(NC(=O)c5ccc6ocnc6c5)(C4)C2)C3)n1 [Example 175, Benzoxazole-5-carboxylic acid {3-[(6-methyl-pyrazine-2-carbonyl)-amino]-adamantan-1-yl}-amide] | 63 to 99 |
| Cc1cncc(C(=O)NC23CC4CC(CC(NC(=O)c5ccc(F)cc5)(C4)C2)C3)n1 [Example 177, 6-Methyl-pyrazine-2-carboxylic acid [3-(4-fluoro-benzoylamino)-adamantan-1-yl]-amide] | 63 to 99 |
| Cc1ccnc(C(=O)NC23CC4CC(CC(NC(=O)c5cccc(F)c5)(C4)C2)C3)n1 [Example 182, 4-Methyl-pyrimidine-2-carboxylic acid [3-(3-fluoro-benzoylamino)-adamantan-1-yl]-amide] | 63 to 99 |
| O=C(NC12CC3CC(C1)CC(NC(=O)c1nccc(C(F)(F)F)n1)(C3)C2)c1cccc(F)c1 [Example 184, 4-Trifluoromethyl-pyrimidine-2-carboxylic acid [3-(3-fluoro-benzoylamino)-adamantan-1-yl]-amide] | 63 to 99 |
| O=C(NC12CC3CC(C1)CC(NC(=O)c1cnccn1)(C3)C2)c1ccnc(Br)c1 [Example 186, Pyrazine-2-carboxylic acid {3-[(2-bromo-pyridine-4-carbonyl)-amino]-adamantan-1-yl}-amide] | 63 to 99 |
| Cc1nc(C(=O)NC23CC4CC(CC(NC(=O)c5cnccn5)(C4)C2)C3)cs1 [Example 187, Pyrazine-2-carboxylic acid {3-[(2-methyl-thiazole-4-carbonyl)-amino]-adamantan-1-yl}-amide] | 63 to 99 |
| Cc1ccnc(C(=O)NC23CC4CC(CC(NC(=O)c5cnccn5)(C4)C2)C3)n1 [Example 189, 4-Methyl-pyrimidine-2-carboxylic acid {3-[(pyrazine-2-carbonyl)-amino]-adamantan-1-yl}-amide] | 63 to 99 |
| O=C(NC12CC3CC(C1)CC(NC(=O)c1ccnc(C(F)(F)F)n1)(C3)C2)c1cnccn1 [Example 190, 2-Trifluoromethyl-pyrimidine-4-carboxylic acid {3-[(pyrazine-2-carbonyl)-amino]-adamantan-1-yl}-amide] | 63 to 99 |
| Cc1nccc(C(=O)NC23CC4CC(C2)CC(NC(=O)c2nccc(C(F)(F)F)n2)(C4)C3)n1 [Example 192, 4-Trifluoromethyl-pyrimidine-2-carboxylic acid {3-[(2-methyl-pyrimidine-4-carbonyl)-amino]-adamantan-1-yl}-amide] | 63 to 99 |
| Cc1ccnc(C(=O)NC23CC4CC(CC(NC(=O)c5ccncn5)(C4)C2)C3)n1 [Example 194, 4-Methyl-pyrimidine-2-carboxylic acid {3-[(pyrimidine-4-carbonyl)-amino]-adamantan-1-yl}-amide] | 63 to 99 |
| O=C(NC12CC3CC(C1)CC(NC(=O)c1nccc(C(F)(F)F)n1)(C3)C2)c1ccncn1 [Example 196, 4-Trifluoromethyl-pyrimidine-2-carboxylic acid {3-[(pyrimidine-4-carbonyl)-amino]-adamantan-1-yl}-amide] | 63 to 99 |
| O=C(NC12CC3CC(C1)CC(NC(=O)c1cccc(N4CCOCC4)n1)(C3)C2)c1ccccn1 [Example 197, 6-Morpholin-4-yl-pyridine-2-carboxylic acid {3-[(pyridine-2-carbonyl)-amino]-adamantan-1-yl}-amide] | 63 to 99 |
| CN1CCN(c2cccc(C(=O)NC34CC5CC(CC(NC(=O)c6ccccn6)(C5)C3)C4)n2)CC1 [Example 198, 6-(4-Methyl-piperazin-1-yl)-pyridine-2-carboxylic acid {3-[(pyridine-2-carbonyl)-amino]-adamantan-1-yl}-amide] | 63 to 99 |
| CN(C)C1CCN(c2cccc(C(=O)NC34CC5CC(CC(NC(=O)c6ccccn6)(C5)C3)C4)n2)C1 (stereo not shown) [Example 199, 6-(3-Dimethylamino-pyrrolidin-1-yl)-pyridine-2-carboxylic acid {3-[(pyridine-2-carbonyl)-amino]-adamantan-1-yl}-amide] | 63 to 99 |
| O=C(NC12CC3CC(C1)CC(NC(=O)c1cccc(N4CCC(O)CC4)n1)(C3)C2)c1ccccn1 [Example 200, 4-Hydroxy-3,4,5,6-ttrahydro-2H-[1,2′]bipyridinyl-6′-carboxylic acid {3-[(pyridine-2-carbonyl)-amino]-adamantan-1-yl}-amide] | 63 to 99 |
| O=C(NC12CC3CC(C1)CC(NC(=O)c1cccc(N4CCC(O)C4)n1)(C3)C2)c1ccccn1 (stereo not shown) [Example 201, 6-(3-Hydroxy-pyrrolidin-1-yl)-pyridine-2-carboxylic acid {3-[(pyridine-2-carbonyl)-amino]-adamantan-1-yl}-amide] | 63 to 99 |
| CN(CCO)c1cccc(C(=O)NC23CC4CC(CC(NC(=O)c5ccccn5)(C4)C2)C3)n1 [Example 202, 6-[(2-Hydroxy-ethyl)-methyl-amino]-pyridine-2-carboxylic acid {3-[(pyridine-2-carbonyl)-amino]-adamantan-1-yl}-amide] | 63 to 99 |

Other lines, results leading:

| Emax [%] | Structure (SMILES) |
| --- | --- |
| 63 to 99 | Cc1cncc(C(=O)NC23CC4CC(C2)CC(NC(=O)c2ncccn2)(C4)C3)n1 [Example 172, Pyrimidine-2-carboxylic acid {3-[(6-methyl-pyrazine-2-carbonyl)-amino]-adamantan-1-yl}-amide] |
| 63 to 99 | Cc1cncc(C(=O)NC23CC4CC(C2)CC(NC(=O)c2ccnc(C)n2)(C4)C3)n1 [Example 173, 2-Methyl-pyrimidine-4-carboxylic acid {3-[(6-methyl-pyrazine-2-carbonyl)-amino]-adamantan-1-yl}-amide] |
| 63 to 99 | Cc1cncc(C(=O)NC23CC4CC(C2)CC(NC(=O)c2ccc5cnccc5n2)(C4)C3)n1 [Example 174, [1,6]Naphthyridine-2-carboxylic acid {3-[(6-methyl-pyrazine-2-carbonyl)-amino]-adamantan-1-yl}-amide] |
| 63 to 99 | Cc1cncc(C(=O)NC23CC4CC(CC(NC(=O)c5cc(Br)ccn5)(C4)C2)C3)n1 [Example 176, 6-Methyl-pyrazine-2-carboxylic acid {3-[(4-bromo-pyridine-2-carbonyl)-amino]-adamantan-1-yl}-amide] |
| 63 to 99 | Cc1cncc(C(=O)NC23CC4CC(CC(NC(=O)c5ccnc(Br)c5)(C4)C2)C3)n1 [Example 178, 6-Methyl-pyrazine-2-carboxylic acid {3-[(2-bromo-pyridine-4-carbonyl)-amino]-adamantan-1-yl}-amide] |
| 63 to 99 | Cc1cncc(C(=O)NC23CC4CC(C2)CC(NC(=O)c2nccc(C(F)(F)F)n2)(C4)C3)n1 [Example 181, 4-Trifluoromethyl-pyrimidine-2-carboxylic acid {3-[(6-methyl-pyrazine-2-carbonyl)-amino]-adamantan-1-yl}-amide] |
| 63 to 99 | Cc1nccc(C(=O)NC23CC4CC(CC(NC(=O)c5ccc(F)cn5)(C4)C2)C3)n1 [Example 191, 2-Methyl-pyrimidine-4-carboxylic acid {3-[(5-fluoro-pyridine-2-carbonyl)-amino]-adamantan-1-yl}-amide] |
| 63 to 99 | Cc1ccnc(C(=O)NC23CC4CC(CC(NC(=O)c5ccnc(C)n5)(C4)C2)C3)n1 [Example 193, 2-Methyl-pyrimidine-4-carboxylic acid {3-[(4-methyl-pyrimidine-2-carbonyl)-amino]-adamantan-1-yl}-amide] |
